ChEMBL document CHEMBL1201862, “PubChem BioAssay data set” (2004)
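Grown in 96-well plates, cells were treated for 48 hours with each compound at five concentrations. Insufficient inhibition: endpoint recorded as highest concentration tested. GI50 marks 50% less growth.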 The source made the active and inactive calls. Cut-off read from the data, not from the text of the source: active = GI50 up to about 1.1 µM and inactive = higher.

Columns and labels:
Test in all cases: NCI-60 cell line screen, 48 h
DMS-114 = system: DMS-114
RXF 631 = system: RXF 631
DMS-273 = system: DMS-273
LXFL 529 = system: LXFL 529
HOP-18 = system: HOP-18
M19-MEL = system: M19-MEL
DLD-1 = system: DLD-1
KM-20L2 = system: KM-20L2
XF498 = system: XF498

| SMILES | GI50 (DMS-114) | GI50 (RXF 631) | GI50 (DMS-273) | GI50 (LXFL 529) | GI50 (HOP-18) | GI50 (M19-MEL) | GI50 (DLD-1) | GI50 (KM-20L2) | GI50 (XF498) |
| --- | --- | --- | --- | --- | --- | --- | --- | --- | --- |
| N#C/C(=C\c1ccc[nH]1)C(=O)c1ccccc1 | > 100 µM (inactive) | > 100 µM (inactive) | > 100 µM (inactive) | > 100 µM (inactive) | 70.3 µM (inactive) | > 100 µM (inactive) | > 100 µM (inactive) | > 100 µM (inactive) | – |
| O=C(CC1C(=O)Nc2ccccc2[S+]1[O-])Nc1cccc(Cl)c1 (centres undefined) | 47.1 µM (inactive) | – | – | 91.8 µM (inactive) | > 100 µM (inactive) | > 100 µM (inactive) | > 100 µM (inactive) | > 100 µM (inactive) | > 100 µM (inactive) |
| O=C(Nc1ccc(Cl)cc1)C1C(=O)C(=O)N(c2ccc(Cl)cc2)C1=O (centres undefined) | > 100 µM (inactive) | > 100 µM (inactive) | > 100 µM (inactive) | 59.2 µM (inactive) | > 100 µM (inactive) | > 100 µM (inactive) | 68.9 µM (inactive) | 45.8 µM (inactive) | > 100 µM (inactive) |
| COc1cc2cc3c4c(cc(OC)c(OC)c4c2cc1OC)CCN3C(=O)CCCC(=O)O | > 100 µM (inactive) | – | > 100 µM (inactive) | > 100 µM (inactive) | – | > 100 µM (inactive) | > 100 µM (inactive) | > 100 µM (inactive) | – |
| CC12Oc3ccc4ccccc4c3CC1Cc1c(ccc3ccccc13)O2 (centres undefined) | 60.1 µM (inactive) | – | 18.8 µM (inactive) | 45.4 µM (inactive) | 35.9 µM (inactive) | > 100 µM (inactive) | 58.1 µM (inactive) | > 100 µM (inactive) | – |
| Cc1ccc(Cc2c(=O)[nH]nc3ccccc23)cc1 | > 100 µM (inactive) | > 100 µM (inactive) | > 100 µM (inactive) | – | > 100 µM (inactive) | > 100 µM (inactive) | > 100 µM (inactive) | > 100 µM (inactive) | 30.2 µM (inactive) |
| Cc1ccccc1C1SCc2nc3ccccc3n21 (centres undefined) | 6.79 µM (inactive) | – | 4.6 µM (inactive) | – | > 100 µM (inactive) | > 100 µM (inactive) | > 100 µM (inactive) | – | – |
| CCCCC(C(=O)C(=O)Nc1ccc(C)cc1C)C(=O)C(C)C (centres undefined) | > 100 µM (inactive) | > 100 µM (inactive) | > 100 µM (inactive) | > 100 µM (inactive) | > 100 µM (inactive) | > 100 µM (inactive) | > 100 µM (inactive) | > 100 µM (inactive) | > 100 µM (inactive) |
| Cc1cc(=O)oc2cc3c(cc12)Oc1ccccc1O3 | > 100 µM (inactive) | > 100 µM (inactive) | > 100 µM (inactive) | > 100 µM (inactive) | > 100 µM (inactive) | > 100 µM (inactive) | > 100 µM (inactive) | > 100 µM (inactive) | > 10 µM (inactive) |
| O=c1ccn(/C=C/C(O)C(O)CO)c(=O)[nH]1 (centres undefined) | > 100 µM (inactive) | > 100 µM (inactive) | > 100 µM (inactive) | > 100 µM (inactive) | > 100 µM (inactive) | > 100 µM (inactive) | > 100 µM (inactive) | > 100 µM (inactive) | > 100 µM (inactive) |
| Nc1ccc(CCN2CCN(c3cccc(C(F)(F)F)c3)CC2)cc1 | 26.4 µM (inactive) | 56.5 µM (inactive) | – | > 100 µM (inactive) | > 100 µM (inactive) | > 100 µM (inactive) | 97.1 µM (inactive) | > 100 µM (inactive) | > 100 µM (inactive) |
| CCC1CC(C)=CCN1S(=O)(=O)c1ccc(C)cc1 (centres undefined) | 15.9 µM (inactive) | – | 22 µM (inactive) | 12.9 µM (inactive) | – | – | – | 19.2 µM (inactive) | – |
| CC(C)(C)OC(=O)N[C@H]1CC(O)c2ccccc2N(CC(=O)O)C1=O (some centres undefined) | > 100 µM (inactive) | > 100 µM (inactive) | > 100 µM (inactive) | > 100 µM (inactive) | > 100 µM (inactive) | > 100 µM (inactive) | > 100 µM (inactive) | > 100 µM (inactive) | > 100 µM (inactive) |
| C/C(CN1C(=O)c2ccccc2C1=O)=N\NS(=O)(=O)c1ccccc1 | > 100 µM (inactive) | > 100 µM (inactive) | > 100 µM (inactive) | > 100 µM (inactive) | > 100 µM (inactive) | > 100 µM (inactive) | > 100 µM (inactive) | > 100 µM (inactive) | – |
| S=C(N/N=C/c1ccccc1)NC1CC(c2ccccc2)Oc2ccccc21 (centres undefined) | 43.2 µM (inactive) | – | 66.7 µM (inactive) | > 100 µM (inactive) | – | > 100 µM (inactive) | 91.8 µM (inactive) | – | 34.5 µM (inactive) |
| Cc1cc2c(C)n(Cc3ccc(Cl)cc3Cl)nc2c(C(=O)O)c1C | – | > 100 µM (inactive) | > 100 µM (inactive) | > 100 µM (inactive) | > 100 µM (inactive) | > 100 µM (inactive) | > 100 µM (inactive) | > 100 µM (inactive) | > 100 µM (inactive) |

| SMILES | GI50 (DMS-114) | GI50 (RXF 631) | GI50 (DMS-273) | GI50 (LXFL 529) | GI50 (HOP-18) | GI50 (M19-MEL) | GI50 (DLD-1) | GI50 (KM-20L2) | GI50 (XF498) |
| --- | --- | --- | --- | --- | --- | --- | --- | --- | --- |
| COc1ccc(/C=N/N=C(\N)NO)c(OC)c1C | 13.2 µM (inactive) | – | – | 3.62 µM (inactive) | 5.24 µM (inactive) | – | 29 µM (inactive) | – | – |
| COc1ccc(NC(=O)C2=CC(=O)c3ccc(O)cc3C2=O)c(OC)c1 | > 100 µM (inactive) | > 100 µM (inactive) | – | > 100 µM (inactive) | > 100 µM (inactive) | > 100 µM (inactive) | > 100 µM (inactive) | > 100 µM (inactive) | > 100 µM (inactive) |
| C1=CC2SSSC2C1 (centres undefined) | > 100 µM (inactive) | – | > 100 µM (inactive) | > 100 µM (inactive) | > 100 µM (inactive) | > 100 µM (inactive) | > 100 µM (inactive) | > 100 µM (inactive) | > 100 µM (inactive) |
| Nc1ccc2c(SCC(=O)Nc3ccccc3-c3ccccc3NC(=O)CSc3c4ccccc4nc4cc(N)ccc34)c3ccccc3nc2c1 | 18.9 µM (inactive) | 27.9 µM (inactive) | 33 µM (inactive) | 11.5 µM (inactive) | 26 µM (inactive) | 20.2 µM (inactive) | 12.9 µM (inactive) | 33.1 µM (inactive) | 19.9 µM (inactive) |
| SC1=NC2(CCCCCC2)NN1c1ccccc1 | 0.273 µM (active) | 2.81 µM (inactive) | 0.166 µM (active) | 0.0407 µM (active) | > 100 µM (inactive) | – | 0.34 µM (active) | – | – |
| CC(=O)NC(CCCNC(=O)N(CCCl)N=O)C(=O)NCc1ccccc1 (centres undefined) | > 100 µM (inactive) | – | > 100 µM (inactive) | > 100 µM (inactive) | > 100 µM (inactive) | > 100 µM (inactive) | 58.6 µM (inactive) | > 100 µM (inactive) | > 100 µM (inactive) |
| O=C(N/C(=C\c1ccc([N+](=O)[O-])cc1)c1nc2ccccc2s1)c1ccccc1 | 23.3 µM (inactive) | – | 35.7 µM (inactive) | 18.8 µM (inactive) | 18.5 µM (inactive) | 22.9 µM (inactive) | 19.9 µM (inactive) | 40.7 µM (inactive) | 44.8 µM (inactive) |
| O=C(CC1C(=O)c2ccccc2C1=C1C(=O)c2ccccc2C1=O)c1ccccc1 (centres undefined) | > 100 µM (inactive) | – | > 100 µM (inactive) | 85.5 µM (inactive) | > 100 µM (inactive) | 78.9 µM (inactive) | > 100 µM (inactive) | > 100 µM (inactive) | > 100 µM (inactive) |
| CSc1nc2c(c(O)c(C)c(=O)n2C2OCC(OC(C)=O)C(OC(C)=O)C2OC(C)=O)c(=O)n1C (centres undefined) | > 100 µM (inactive) | – | – | > 100 µM (inactive) | – | > 100 µM (inactive) | > 100 µM (inactive) | > 100 µM (inactive) | – |
| CCOC(=O)/C(=C/c1ccccc1)N(CC)CC | > 100 µM (inactive) | – | > 100 µM (inactive) | > 100 µM (inactive) | – | > 100 µM (inactive) | – | > 100 µM (inactive) | > 100 µM (inactive) |
| CN/C(=N\C#N)N(Cc1ccccc1)Cc1ccccc1 | – | – | > 100 µM (inactive) | > 100 µM (inactive) | – | > 100 µM (inactive) | > 100 µM (inactive) | > 100 µM (inactive) | > 100 µM (inactive) |
| COc1cc(CC2c3cc(OC)c(OC)cc3CCN2C)c(C(=O)O)cc1OC (centres undefined) | > 100 µM (inactive) | – | > 100 µM (inactive) | > 100 µM (inactive) | > 100 µM (inactive) | > 100 µM (inactive) | > 100 µM (inactive) | > 100 µM (inactive) | > 100 µM (inactive) |
| CCOc1ccc(NCC2CC/C(=C\c3ccc(Cl)cc3)C2=O)cc1 (centres undefined) | 26.4 µM (inactive) | – | > 39.8 µM (inactive) | 13.1 µM (inactive) | 22.1 µM (inactive) | > 42.4 µM (inactive) | 10 µM (inactive) | > 38.3 µM (inactive) | 19.3 µM (inactive) |
| C/C=C1\CCC2c3[nH]c4ccccc4c3CCN2C1 (centres undefined) | 91.8 µM (inactive) | – | > 100 µM (inactive) | > 100 µM (inactive) | – | > 100 µM (inactive) | > 100 µM (inactive) | 45.6 µM (inactive) | 17.1 µM (inactive) |
| CCOC(=O)/C(O)=C(/C(=O)OC)c1ccc(Cl)cc1 | > 100 µM (inactive) | > 100 µM (inactive) | > 100 µM (inactive) | > 100 µM (inactive) | – | > 100 µM (inactive) | > 100 µM (inactive) | > 100 µM (inactive) | > 100 µM (inactive) |
| O=C1CCC2(c3ccc(F)cc3)Nc3ccccc3N12 (centres undefined) | > 100 µM (inactive) | > 100 µM (inactive) | – | > 100 µM (inactive) | – | > 100 µM (inactive) | > 100 µM (inactive) | > 100 µM (inactive) | > 100 µM (inactive) |
